# Results from article PMC9026348, “Investigation of Direct and Retro Chromone-2-Carboxamides Based Analogs of Pseudomonas aeruginosa Quorum Sensing Signal as New Anti-Biofilm Agents” (Pharmaceuticals, 2022).
# Legend:
# [1] = test system: P. aeruginosa PAO1 biofilms; assay: Anti-biofilm assay, CFU count of adherent cells; format: cell-based, Pseudomonas aeruginosa PAO1; settings: PAO1, 48 h, relative to untreated control, mean ± SD of 3 independent experiments; for inhibition at 50 µM: Pseudomonas aeruginosa; for Biofilm Inhibition (%): 50 µM
# Protocol: The effect of all compounds was evaluated on PAO1 biofilms, grown in 24-well microplates. The antibiofilm assay used in this study is based on a low nutritive culture medium, a rather weak inoculum (10^2 CFU/mL), and a regular renewal of the culture medium (at 2, 4, 6, 20, and 24 h), in order to promote the growth of adhered cells as biofilm, instead of the growth and/or sedimentation of planktonic cells. Since the QS systems are involved in early steps of biofilm formation, compounds were added at t0. After incubation, viable cells were quantified by CFU plate counts.
# The rather low concentration of 50 µM used was set up according to detected concentrations of QS molecules in CF patients’ lungs. […] For all compounds, MICs/MBCs were higher than 500 µM. To be considered active, a threshold of 50% inhibition, relative to the untreated control, was applied.
# Pseudomonas aeruginosa PAO1 was obtained from the Institute Pasteur Collection (CIP 104116, Paris, France), frozen and kept at -80 °C in a 20% (v/v) glycerol stock solution. Before each experiment, two successive subcultures were prepared on trypticase soy agar and incubated for 24 h under aerobic conditions at 37 °C. Before each experiment, bacterial suspensions of 10^8 CFU/mL were prepared by adjusting OD at 640 nm to 0.150.
# The bacterial enumerations were done on trypticase soy agar. The minimum biofilm broth used for biofilm formation (MBB) was prepared in sterile distilled water (SDW) and was composed of MgSO4·7H2O (0.02 g/L), FeSO4·7H2O (0.5 mg/L), Na2HPO4 (1.25 g/L), KH2PO4 (0.5 g/L), (NH4)2SO4 (0.1 g/L), and glucose (0.05 g/L) from Merck-Sigma (France).
# The enumeration of adhered bacteria was carried-out according to Campanac et al. with some modifications. P. aeruginosa biofilms were grown in a 24-wells microtiter plate for 48 h. The culture medium was composed of BBM 2X (1.0 mL) and 1.0 mL of a 10^−4 M solution of tested compound dissolved in SDW (final concentration 50 µM). After inoculation with 100 µL of a 10^2 CFU/mL bacterial suspension of P. aeruginosa PAO1 (final inoculum 10 CFU/well), the microtiter plate was incubated à 37 °C. After 2 h, 4 h, 6 h, 20 h and 24 h of incubation, each well was emptied, rinsed twice with SDW, and the culture medium was renewed. After 48 h of culture, the biofilm was rinsed twice with 2.0 mL SDW. The bottom of each well was scraped with a sterile spatula and suspended in 1.0 mL of SDW. The content of each well was diluted by serial dilutions in test tubes. After inclusion of 0.9 mL of each dilution in trypticase soy agar, Petri dishes were incubated for 48 h at 37 °C. The number of colony forming units (CFUs) was counted and the inhibition percentage calculated using the following formula: Inhibition(%)=Adhered cellsControl(CFU/mL)−Adhered cellsSample(CFU/mL) /Adhered cellsControl×100
structure (smiles),measurement,setting,value
"O=C(Nc1cc([N+](=O)[O-])cc([N+](=O)[O-])c1)c1cc(=O)c2ccccc2o1 [3o, N-(3,5-Dinitrophenyl)-4-oxo-4H-chromene-2-carboxamide]",melting point,,312 °C
same,inhibition at 50 µM,[1],43.8 ± 24.2%
"O=C(Nc1cc(=O)c2ccccc2o1)c1ccc(Br)cc1 [6g, 4-Bromo-N-(4-oxo-4H-chromen-2-yl) benzamide]",melting point,,287 °C
same,inhibition at 50 µM,[1],56.2 ± 7.9%
"O=C(Nc1cc(=O)c2ccccc2o1)c1ccc(F)cc1 [6e, 4-Fluoro-N-(4-oxo-4H-chromen-2-yl) benzamide]",melting point,,251 °C
same,inhibition at 50 µM,[1],65.3 ± 7.6%
"O=C(Nc1ccc(F)cc1Cl)c1cc(=O)c2ccccc2o1 [3k, N-(2-Chloro-4-fluorophenyl)-4-oxo-4H-chromene-2-carboxamide]",melting point,,229 °C
same,inhibition at 50 µM,[1],44.7 ± 9.4%
"O=C(Nc1cc(=O)c2ccccc2o1)c1ccc(N2CCOCC2)cc1 [6u, 4-Morpholino-N-(4-oxo-4H-chromen-2-yl) benzamide]",melting point,,287 °C
same,inhibition at 50 µM,[1],56.8 ± 10%
"O=C(NCCCn1ccnc1)c1cc(=O)c2ccccc2o1 [3′f, N-(3-(1H-Imidazol-1-yl)propyl)-4-oxo-4H-chromene-2-carboxamide]",melting point,,171 °C
same,inhibition at 50 µM,[1],< 10%
"O=C(Nc1cc(=O)c2ccccc2o1)c1ccc(F)c(Cl)c1 [6l, 3-Chloro-4-fluoro-N-(4-oxo-4H-chromen-2-yl) benzamide]",melting point,,224 °C
same,inhibition at 50 µM,[1],67.2 ± 5.2%
CCN(CC)Cc1cc(NC(=O)c2cc(=O)c3ccccc3o2)ccc1O [3′b],Biofilm Inhibition (%),[1],35.5 ± 5.8%
"O=C(Nc1cc(=O)c2ccccc2o1)c1ccc([N+](=O)[O-])cc1 [6m, 4-Nitro-N-(4-oxo-4H-chromen-2-yl) benzamide]",melting point,,323 °C
same,Biofilm Inhibition (%),[1],inactive
same,inhibition at 50 µM,[1],< 10%
"O=C(Nc1ccc(Cl)cc1)c1cc(=O)c2ccccc2o1 [3f, N-(4-Chlorophenyl)-4-oxo-4H-chromene-2-carboxamide]",melting point,,265 °C
same,inhibition at 50 µM,[1],25.9 ± 4.3%
"CCc1cccc(NC(=O)c2cc(=O)c3ccccc3o2)c1 [3′a, N-(3-Ethylphenyl)-4-oxo-4H-chromene-2-carboxamide]",melting point,,168 °C
same,inhibition at 50 µM,[1],70.5 ± 5.6%
"Cc1ccc(C(=O)Nc2cc(=O)c3ccccc3o2)cc1 [6b, 4-Methyl-N-(4-oxo-4H-chromen-2-yl) benzamide]",melting point,,240 °C
same,inhibition at 50 µM,[1],67 ± 3.6%
"CC(C)(C)OC(=O)N1CCC(CNC(=O)c2cc(=O)c3ccccc3o2)CC1 [3′e, Tert-butyl 4-((4-oxo-4H-chromene-2-carboxamido)methyl)piperidine-1-carboxylate]",melting point,,129 °C
same,inhibition at 50 µM,[1],36 ± 28.6%
"COc1ccc(C(=O)Nc2cc(=O)c3ccccc3o2)cc1 [6p, 4-Methoxy-N-(4-oxo-4H-chromen-2-yl) benzamide]",melting point,,227 °C
same,inhibition at 50 µM,[1],39.3 ± 17.1%
"COc1ccc(NC(=O)c2cc(=O)c3ccccc3o2)cc1OC [3s, N-(3,4-Dimethoxyphenyl)-4-oxo-4H-chromene-2-carboxamide]",melting point,,229 °C
same,inhibition at 50 µM,[1],< 10%
"CCCc1ccc(NC(=O)c2cc(=O)c3ccccc3o2)cc1 [3d, 4-Oxo-N-(4-propylphenyl)-4H-chromene-2-carboxamide]",melting point,,173 °C
same,inhibition at 50 µM,[1],55.6 ± 18.3%
"O=C(Nc1cc(=O)c2ccccc2o1)C1CCCCC1 [6x, N-(4-Oxo-4H-chromen-2-yl)cyclohexanecarboxamide]",melting point,,241 °C
same,inhibition at 50 µM,[1],48.7 ± 5.3%
"O=C(Nc1cc(=O)c2ccccc2o1)c1ncccn1 [6v, N-(4-Oxo-4H-chromen-2-yl) pyrimidine-2-carboxamide]",melting point,,215 °C
same,inhibition at 50 µM,[1],48.8 ± 2.6%
"O=C(NC1CCCCC1)c1cc(=O)c2ccccc2o1 [3x, N-Cyclohexyl-4-oxo-4H-chromene-2-carboxamide]",melting point,,179 °C
same,inhibition at 50 µM,[1],32 ± 10.3%
"CCc1ccc(NC(=O)c2cc(=O)c3ccccc3o2)cc1 [3c, N-(4-Ethylphenyl)-4-oxo-4H-chromene-2-carboxamide]",melting point,,179 °C
same,inhibition at 50 µM,[1],43.3 ± 7.2%
"O=C(Nc1cc(=O)c2ccccc2o1)c1ccc(Cl)cc1 [6f, 4-Chloro-N-(4-oxo-4H-chromen-2-yl) benzamide]",melting point,,296 °C
same,inhibition at 50 µM,[1],66.6 ± 2.1%
"O=C(NC12CC3CC(CC(C3)C1)C2)c1cc(=O)c2ccccc2o1 [3y, N-((3S,5S,7S)-Adamantan-1-yl)-4-oxo-4H-chromene-2-carboxamide]",melting point,,201 °C
same,inhibition at 50 µM,[1],24.4 ± 8.8%
"COc1ccc(C(=O)Nc2cc(=O)c3ccccc3o2)cc1OC [6s, 3,4-Dimethoxy-N-(4-oxo-4H-chromen-2-yl) benzamide]",melting point,,246 °C
same,inhibition at 50 µM,[1],71.9 ± 13.5%
"O=C(Nc1ncccn1)c1cc(=O)c2ccccc2o1 [3v, 4-Oxo-N-(pyrimidin-2-yl)-4H-chromene-2-carboxamide]",melting point,,189 °C
same,inhibition at 50 µM,[1],46 ± 7.3%
"O=C(Nc1ccc(Cn2ccnc2)cc1)c1cc(=O)c2ccccc2o1 [3′d, N-(4-((1H-Imidazol-1-yl)methyl)phenyl)-4-oxo-4H-chromene-2-carboxamide]",melting point,,261 °C
same,inhibition at 50 µM,[1],< 10%
"O=C(Nc1cc(=O)c2ccccc2o1)c1ccccc1Br [6j, 2-Bromo-N-(4-oxo-4H-chromen-2-yl) benzamide]",melting point,,215 to 218 °C
same,inhibition at 50 µM,[1],36.1 ± 4.1%
"O=C(Nc1ccc(F)cc1)c1cc(=O)c2ccccc2o1 [3e, N-(4-Fluorophenyl)-4-oxo-4H-chromene-2-carboxamide]",melting point,,211 °C
same,inhibition at 50 µM,[1],73.3 ± 11%
"O=C(CN1CCN(C(=O)c2cc(=O)c3ccccc3o2)CC1)N1CCCC1 [3′i, 2-(4-(2-Oxo-2-(pyrrolidin-1-yl)ethyl)piperazine-1-carbonyl)-4H-chromen-4-one]",melting point,,117 °C
same,inhibition at 50 µM,[1],10.8 ± 0.4%
"CCc1ccc(C(=O)Nc2cc(=O)c3ccccc3o2)cc1 [6c, 4-Ethyl-N-(4-oxo-4H-chromen-2-yl) benzamide]",melting point,,237 °C
same,inhibition at 50 µM,[1],63.1 ± 3%
"O=C(Nc1ccccc1F)c1cc(=O)c2ccccc2o1 [3h, N-(2-Fluorophenyl)-4-oxo-4H-chromene-2-carboxamide]",melting point,,225 °C
same,inhibition at 50 µM,[1],42.4 ± 10.4%
"CCN(CC)Cc1cc(NC(=O)c2cc(=O)c3ccccc3o2)ccc1O [3′c, N-(3-((Diethylamino)methyl)-4-hydroxyphenyl)-4-oxo-4H-chromene-2-carboxamide]",melting point,,186 °C
same,inhibition at 50 µM,[1],39.7 ± 4.5%
"COc1cc(NC(=O)c2cc(=O)c3ccccc3o2)cc(OC)c1 [3t, N-(3,5-Dimethoxyphenyl)-4-oxo-4H-chromene-2-carboxamide]",melting point,,211 °C
same,inhibition at 50 µM,[1],< 10%
"CCCC(=O)Nc1cc(=O)c2ccccc2o1 [6w, N-(4-Oxo-4H-chromen-2-yl) butyramide]",melting point,,212 °C
same,inhibition at 50 µM,[1],56.4 ± 7.2%
"CCCNC(=O)c1cc(=O)c2ccccc2o1 [3w, 4-Oxo-N-propyl-4H-chromene-2-carboxamide]",melting point,,166 °C
same,inhibition at 50 µM,[1],< 10%
"COc1ccccc1NC(=O)c1cc(=O)c2ccccc2o1 [3q, N-(2-Methoxyphenyl)-4-oxo-4H-chromene-2-carboxamide]",melting point,,199 °C
same,inhibition at 50 µM,[1],41.3 ± 5.7%
"O=C(Nc1ccccc1)c1cc(=O)c2ccccc2o1 [3a, 4-Oxo-N-phenyl-4H-chromene-2-carboxamide]",melting point,,229 °C
same,inhibition at 50 µM,[1],21.4 ± 17%
"Cc1ccc(NC(=O)c2cc(=O)c3ccccc3o2)cc1 [3b, 4-Oxo-N-(p-tolyl)-4H-chromene-2-carboxamide]",inhibition at 50 µM,[1],39.1 ± 5.4%
"COc1ccc(NC(=O)c2cc(=O)c3ccccc3o2)cc1 [3p, N-(4-Methoxyphenyl)-4-oxo-4H-chromene-2-carboxamide]",inhibition at 50 µM,[1],47.5 ± 5.3%
"O=C(Nc1ccc(Br)cc1)c1cc(=O)c2ccccc2o1 [3g, N-(4-Bromophenyl)-4-oxo-4H-chromene-2-carboxamide]",inhibition at 50 µM,[1],47.2 ± 2.8%
